Source: patent US6323193A, “Bioavailable oral dosage form of cefuroxime axetil” (Ranbaxy Laboratories Limited, priority 1999, dated 2001)
Read-outs that look alike come from different tables or passages of the source.

Key:
[1] = Behaviour of amorphous cefuroxime axetil in contact with water (conversion to crystalline form, gel formation); assay type: physicochemical; conditions: formulation with sodium salt of citric acid
[2] = oral administration, cited from earlier work
[3] = cited from earlier work
[4] = test system: gram-positive and gram-negative microorganisms; conditions: cited from earlier work

In the case of `CO/N=C(\C(=O)N[C@@H]1C(=O)N2C(C(=O)OC(C)OC(C)=O)=C(COC(N)=O)CS[C@H]12)c1ccco1` (stereo partly shown) [amorphous cefuroxime axetil], the “tendency to form a gel on addition of a sodium salt of citric acid” value [1] is given as “inhibits the tendency of amorphous cefuroxime axetil to form a gel”, the bioavailability ([2]; listed as amorphous form of cefuroxime axetil) is given as “high bioavailability” and the bioavailability ([2]; listed as highly pure amorphous cefuroxime axetil) is given as “higher bioavailability than crystalline cefuroxime axetil”. The gel formation ([3]; contact with water) was “forms a gel which prolongs the disintegration and retards the dissolution” and the “conversion to the crystalline form” value ([3]; upon contact with water) was “gets converted to the crystalline form”.

In the case of `CO/N=C(\C(=O)N[C@@H]1C(=O)N2C(C(=O)OC(C)OC(C)=O)=C(COC(N)=O)CS[C@H]12)c1ccco1` (stereo partly shown) [Crystalline cefuroxime axetil], the bioavailability [2] is given as “does not exhibit adequate bioavailability”.

For `CO/N=C(\C(=O)N[C@@H]1C(=O)N2C(C(=O)OC(C)OC(C)=O)=C(COC(N)=O)CS[C@H]12)c1ccco1` (stereo partly shown) [Cefuroxime axetil, 1-acetoxyethyl ester of cefuroxime], the spectrum of activity [4] is listed as “broad spectrum of activity”.
